In assay [1] the target is T1, human D3 dopamine receptor (Homo sapiens, UniProt P35462).
T1 construct: expressed in transfected cells; host or cells: HEK-293 EBNA cells, transient transfection; membrane preparation
The assay can be described thus: Radioligand binding ([3H]-spiperone) to cloned human D3 receptor, HEK-293 EBNA cell membranes. The note with it: 0.5 nM [3H]-spiperone, 1 h at RT, Cheng-Prusoff. The protocol:
The ability of the compounds to bind to the 5-HT2A, D3 and D2 receptors was determined using radioligand binding to cloned receptors selectively expressed in HEK-293 EBNA cells.
(§1) Membrane Preparation for Human D2, Human D3 and Human 5-HT2A Receptors
(§2) HEK-293 EBNA cells were transiently transfected with expression plasmids encoding for the human D2 or D3 dopamine- or for the human 5-HT2A serotonin receptor, respectively. The cells were harvested 48 h post-transfection, washed three times with cold PBS and stored at −80° C. prior to use. The pellet was suspended in cold 50 mM Tris-HCl buffer containing 10 mM EDTA (pH 7.4) and homogenized with a Polytron (Kinematica AG, Basel, Switzerland) for 20-30 sec at 12.000 rpm. After centrifugation at 48.000×g for 30 min at 4° C., the pellet was resuspended in cold 10 mM Tris-HCl buffer containing 0.1 mM EDTA (pH 7.4), homogenized, and centrifuged as above. This pellet was further resuspended in a smaller volume of ice cold 10 mM Tris-HCl buffer containing 0.1 mM EDTA (pH 7.4) and homogenized with a Polytron for 20-30 sec at 12.000 rpm. The protein content of this homogenate was determined with the Bio-Rad (Bradford) Protein Assay (Biorad Laboratories GmbH, München, Germany) according to the instructions of the manufacturer using gamma globulin as the standard. This homogenate was stored at −80° C. in aliquots and thawed immediately prior to use.
(§3) Radioligand Binding Assay Conditions
(§4) Aliquots of membrane preparations were thawed at RT, resuspended in assay buffer (D2, D3: 50 mM Tris-HCl, 120 mM NaCl, 5 mM MgCl2, 1 mM EDTA, 5 mM KCl, 1.5 mM CaCl2, pH=7.4; 5-HT2A: 50 mM Tris-HCl, 10 mM MgCl2, 1 mM EGTA, pH=7.4), homogenized with a Polytron for 20-30 sec at 12.000 rpm and adjusted to a final concentration of approximately 7.5 μg protein/well (D2, D3) and 15 μg protein/well (5-HT2A), respectively.
(§5) The binding affinity (Ki) of the compounds was determined using radioligand binding. Membranes were incubated in a total volume of 200 μl with a fixed concentration of radioligand (final concentration approximately 0.7 nM [^3H]-spiperone for D2, 0.5 nM [^3H]-spiperone for D3, and 1.1 nM [^3H]-ketanserin for 5-HT2A) and ten concentrations of test compound in ranging between 10 μM-0.1 nM for 1 h at RT. At the end of the incubation, the reaction mixtures were filtered on to unifilter 96-well white microplates with bonded GF/C filters (Packard BioScience, Zürich, Switzerland; preincubated for 1 h in 0.1% polyethylenimine (PEI) in assay buffer) with a Filtermate 196 harvester (Packard BioScience) and washed 3 times with cold assay buffer. The nonspecific binding was determined with equally composed reaction mixtures in the presence of 10 μM unlabeled spiperone. Per well 45 μl of Microscint 40 (Perkin Elmer, Schwerzenbach, Switzerland) was added, plates for sealed, shaken for 20 min and counted for 3 min on a Topcount Microplate Scintillation Counter (Canberra Packard SA, Zürich, Switzerland) with quenching correction.
(§6) The CPM value for each duplicate of a concentration of competing compound was averaged (yl), then the % specific binding was calculated according to the equation (((yl-non-specific)/(total binding-non-specific))×100). Graphs were plotted with the % specific binding using XLfit, a curve fitting program that iteratively plots the data using Levenburg Marquardt algorithm. The single site competition analysis equation used was y=A+((B−A)/(1+((x/C)^D))), where y is the % specific binding, A is the minimum y, B is the maximum y, C is the IC50, x is the log10 of the concentration of the competing compound and D is the slope of the curve (the Hill Coefficient). […] The affinity constant (Ki) was calculated using the Cheng-Prusoff equation Ki=(IC50/1+([L]/Kd), where [L] is the concentration of radioligand and Kd is the dissociation constant of the radioligand at the receptor as determined by the saturation isotherm.

Assay [2] has as its target T2, human 5-HT2A serotonin receptor (Homo sapiens, UniProt P28223).
T2 construct: expressed in transfected cells; host or cells: HEK-293 EBNA cells, transient transfection; membrane preparation
The assay is described as follows: Radioligand binding ([3H]-ketanserin) to cloned human 5-HT2A receptor, HEK-293 EBNA cell membranes. The following applies: 1.1 nM [3H]-ketanserin, 1 h at RT, Cheng-Prusoff. On the procedure: as §1
as §2, with “The” for “HEK-293 EBNA cells were transiently transfected with expression plasmids encoding for the human D2 or D3 dopamine- or for the human 5-HT2A serotonin receptor, respectively. The”
as §3, §4
The binding affinity (Ki) of the compounds was determined using radioligand binding. […] The nonspecific binding was determined with equally composed reaction mixtures in the presence of 10 μM unlabeled spiperone. Per well 45 μl of Microscint 40 (Perkin Elmer, Schwerzenbach, Switzerland) was added, plates for sealed, shaken for 20 min and counted for 3 min on a Topcount Microplate Scintillation Counter (Canberra Packard SA, Zürich, Switzerland) with quenching correction.
as §6

Assay [3] addresses T3, human D2 dopamine receptor (Homo sapiens, UniProt P14416).
T3 construct: expressed in transfected cells; host or cells: HEK-293 EBNA cells, transient transfection; membrane preparation
The assay can be described thus: Radioligand binding ([3H]-spiperone) to cloned human D2 receptor, HEK-293 EBNA cell membranes. The following applies: 0.7 nM [3H]-spiperone, 1 h at RT, Cheng-Prusoff. On the procedure: as §1, §2, §3, §4, §5, §6

T2 sequence (P28223 whole entry): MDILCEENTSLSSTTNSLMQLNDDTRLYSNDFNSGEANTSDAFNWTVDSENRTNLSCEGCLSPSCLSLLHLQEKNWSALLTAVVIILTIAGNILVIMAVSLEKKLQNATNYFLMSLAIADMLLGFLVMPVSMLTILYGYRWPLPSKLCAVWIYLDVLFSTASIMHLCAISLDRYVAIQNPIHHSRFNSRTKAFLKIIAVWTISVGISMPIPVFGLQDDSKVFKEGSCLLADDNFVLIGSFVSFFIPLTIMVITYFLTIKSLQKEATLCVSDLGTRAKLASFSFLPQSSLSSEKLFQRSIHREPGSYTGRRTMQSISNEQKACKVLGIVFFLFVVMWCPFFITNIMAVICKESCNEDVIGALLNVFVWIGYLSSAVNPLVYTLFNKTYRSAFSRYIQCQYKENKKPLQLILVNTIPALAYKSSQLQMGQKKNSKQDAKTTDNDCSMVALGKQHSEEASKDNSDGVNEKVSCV
T3 sequence (P14416 whole entry): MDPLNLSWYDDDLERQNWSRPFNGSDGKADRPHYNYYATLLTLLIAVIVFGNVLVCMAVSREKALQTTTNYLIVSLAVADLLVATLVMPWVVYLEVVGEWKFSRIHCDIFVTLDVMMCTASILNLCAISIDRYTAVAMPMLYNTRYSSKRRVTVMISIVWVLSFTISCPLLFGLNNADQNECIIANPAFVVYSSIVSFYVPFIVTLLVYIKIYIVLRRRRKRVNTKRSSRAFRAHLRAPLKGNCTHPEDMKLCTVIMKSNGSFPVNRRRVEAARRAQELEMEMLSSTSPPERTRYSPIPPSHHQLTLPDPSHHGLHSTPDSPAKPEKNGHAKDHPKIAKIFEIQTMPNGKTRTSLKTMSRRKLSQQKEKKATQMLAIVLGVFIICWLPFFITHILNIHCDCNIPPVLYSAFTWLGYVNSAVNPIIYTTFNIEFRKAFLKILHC
T1 sequence (P35462 whole entry): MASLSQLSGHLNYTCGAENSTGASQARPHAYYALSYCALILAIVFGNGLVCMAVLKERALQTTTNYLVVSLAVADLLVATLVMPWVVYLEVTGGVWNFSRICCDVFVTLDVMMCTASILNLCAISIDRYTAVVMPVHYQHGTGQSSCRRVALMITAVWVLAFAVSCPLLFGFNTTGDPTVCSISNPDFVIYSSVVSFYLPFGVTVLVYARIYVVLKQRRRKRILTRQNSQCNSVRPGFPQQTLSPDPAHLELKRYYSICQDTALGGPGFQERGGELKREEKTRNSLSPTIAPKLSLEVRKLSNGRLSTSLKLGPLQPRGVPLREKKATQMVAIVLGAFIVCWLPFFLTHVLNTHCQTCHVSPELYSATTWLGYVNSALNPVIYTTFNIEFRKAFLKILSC

With `C[C@]1(O)CC[C@@H](CC(=O)N[C@H]2CC[C@H](CCN3CCC(C(=O)c4ccc(F)cc4)CC3)CC2)CC1` (single isomer, unassigned) [Example 24, N-trans (4-{2-[4-(4-Fluoro-benzoyl)-piperidin-1-yl]-ethyl}-cyclohexyl)-2-(4-cis-hydroxy-4-methyl-cyclohexyl)-acetamide or N-trans (4-{2-[4-(4-fluoro-benzoyl)-piperidin-1-yl]-ethyl}-cyclohexyl)-2-(4-trans-hydroxy-4-methyl-cyclohexyl)-acetamide], the Ki (usually a measure of affinity in units of concentration, obtained from inhibition or displacement) in assay [1] is 43 nM; in assay [2], 9 nM; in assay [3], 1200 nM.

Turning to `COCC1CCC(CC(=O)N[C@H]2CC[C@H](CCN3CCC(C(=O)c4ccc(F)cc4)CC3)CC2)C1` (mixture of isomers) [Example 28, rac-N-trans (4-{2-[4-(4-Fluoro-benzoyl)-piperidin-1-yl]-ethyl}-cyclohexyl)-2-(3-methoxymethyl-cyclopentyl)-acetamide], the inhibition constant Ki in assay [1] was found to be 33 nM; in assay [2], 7 nM; in assay [3], 1300 nM.

Regarding `C[C@]1(O)CC[C@H](CC(=O)N[C@H]2CC[C@H](CCN3CCC(C(=O)c4ccc(F)cc4)CC3)CC2)CC1` (single isomer, unassigned) [Example 23, N-trans (4-{2-[4-(4-Fluoro-benzoyl)-piperidin-1-yl]-ethyl}-cyclohexyl)-2-(4-trans-hydroxy-4-methyl-cyclohexyl)-acetamide or N-trans (4-{2-[4-(4-fluoro-benzoyl)-piperidin-1-yl]-ethyl}-cyclohexyl)-2-(4-cis-hydroxy-4-methyl-cyclohexyl)-acetamide], the Ki in assay [1] came to 49 nM; in assay [2], 7 nM; in assay [3], 1300 nM.

As to `CO[C@H]1CC[C@@H](CC(=O)N[C@H]2CC[C@H](CCN3CCC(C(=O)c4ccc(F)cc4)CC3)CC2)CC1` [Example 2, N-trans (4-{2-[4-(4-Fluoro-benzoyl)-piperidin-1-yl]-ethyl}-cyclohexyl)-2-cis (4-methoxy-cyclohexyl)-acetamide], the inhibition constant Ki in assay [1] is 28 nM; in assay [2] it was 6 nM; in assay [3], 1510 nM.

`COC1CCC(CCC(=O)N[C@H]2CC[C@H](CCN3CCC(C(=O)c4ccc(F)cc4)CC3)CC2)CC1` (mixture of isomers) [Example 29, rac-N-trans (4-{2-[4-(4-Fluoro-benzoyl)-piperidin-1-yl]-ethyl}-cyclohexyl)-3-(4-methoxy-cyclohexyl)-propionamide]: the Ki came out at 41 nM in assay [1], 7 nM in assay [2] and 1410 nM in assay [3].

In the case of `O=C(C[C@H]1CC[C@@H](O)C1)N[C@H]1CC[C@H](CCN2CCC(C(=O)c3ccc(F)cc3)CC2)CC1` (racemic) [Example 6, rac-trans-N (4-{2-[4-(4-Fluoro-benzoyl)-piperidin-1-yl]-ethyl}-cyclohexyl)-2-cis (3-hydroxy-cyclopentyl)-acetamide], the inhibition constant Ki came out at 35 nM in assay [1], 11 nM in assay [2] and 828 nM in assay [3].

Regarding `O=C(CC1CCC2(CC1)OCCO2)N[C@H]1CC[C@H](CCN2CCC(C(=O)c3ccc(F)cc3)CC2)CC1` [Example 12, 2-(1,4-Dioxa-spiro[4.5]dec-8-yl)-N-trans (4-{2-[4-(4-fluoro-benzoyl)-piperidin-1-yl]-ethyl}-cyclohexyl)-acetamide], the inhibitory constant (Ki) in assay [1] came out at 24 nM; in assay [2] it was 6 nM; in assay [3], 1740 nM.

Take `CC1(O)CCC(CC(=O)N[C@H]2CC[C@H](CCN3CCC(C(=O)c4ccc(F)cc4)CC3)CC2)CC1` (mixture of isomers) [Example 22, N-trans (4-{2-[4-(4-Fluoro-benzoyl)-piperidin-1-yl]-ethyl}-cyclohexyl)-2-(4-cis/trans-hydroxy-4-methyl-cyclohexyl)-acetamide]: the inhibition constant Ki in assay [1] came out at 56 nM; in assay [2], 12 nM; in assay [3], 1360 nM.

The record behind these values is patent US8097637B2, “Benzoyl-piperidine derivatives as dual modulators of the 5-HT2A and D3 receptors” (Hoffmann-La Roche Inc., priority 2007, dated 2012).
